Experimental data published in paper PMC8020795 (Proceedings of the National Academy of Sciences of the …, 2021).

What was measured:
hERG = target: T1, hERG (Homo sapiens, UniProt Q12809); assay: hERG patch-clamp assay (hERG-CHO, automated patch-clamp); assay type: cell-based; settings: human, CHO cells that express hERG
T1 construct: host or cells: CHO (hERG-CHO)
From the text: page 16: Table: List of genes examined by real-time PCR and the primer sequences used. Genes Forward primers Reverse primers Slug [NT] Fn1 [NT] Cdh2 […] Foxc2 [NT] Zeb1 [NT] Zeb2 [NT] Twist1 [NT] Cdh1 [NT] Mta3 [NT] Cldn3 [NT] Cldn5 [NT] β-actin […] [NT] Off-target standard assays Methods employed in this study have been adapted from the scientific literature to maximize reliability and reproducibility. Reference standards were run as an integral part of each assay to ensure the validity of the results obtained. Radioligand binding Assays were performed under conditions described in the accompanying "Methods" section of this report by Eurofins Panlabs, Inc (Taipei, Taiwan, ROC). hERG patch-clamp assay BPRCX807 were tested in the hERG (hERG-CHO, automated patch-clamp) assay and determined at Eurofins Panlabs (Missouri, USA). The experiment was accepted in accordance with Eurofins validation Standard Operating Procedure. Selectivity Screening of various chemokine receptors The results were performed by Eurofins DiscoverX (Fremont, California, USA). The S15

CXCR4 = CXCR4 (Homo sapiens, UniProt P61073); assay: PathHunter β-arrestin assay, chemokine receptor selectivity; assay type: cell-based
Chain of CXCR4 (P61073 whole entry): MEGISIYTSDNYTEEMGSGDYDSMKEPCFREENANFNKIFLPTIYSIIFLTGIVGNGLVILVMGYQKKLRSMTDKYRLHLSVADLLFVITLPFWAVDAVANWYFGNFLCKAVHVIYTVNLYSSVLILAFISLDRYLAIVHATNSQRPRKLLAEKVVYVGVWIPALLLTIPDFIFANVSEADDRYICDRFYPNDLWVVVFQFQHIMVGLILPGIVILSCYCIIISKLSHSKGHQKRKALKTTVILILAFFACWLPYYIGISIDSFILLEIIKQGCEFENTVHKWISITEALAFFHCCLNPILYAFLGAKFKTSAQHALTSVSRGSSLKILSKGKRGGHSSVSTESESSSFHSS
From the text: (§1) Table: List of genes examined by real-time PCR and the primer sequences used.
(§2) Genes Forward primers Reverse primers […]
(§3) Vim 5’-[…]-3’ 5’-[…]-3’ […]
(§4) Zeb2 5’-[…]-3’ 5’-[…]-3’
(§5) Twist1 5’-[…]-3’ 5’-[…]-3’
(§6) Cdh1 5’-[…]-3’ 5’-[…]-3’
(§7) Mta3 5’-[…]-3’ 5’-[…]-3’ […]
(§8) Off-target standard assays
(§9) Methods employed in this study have been adapted from the scientific literature to […]
(§10) maximize reliability and reproducibility. Reference standards were run as an integral part of […]
(§11) each assay to ensure the validity of the results obtained. Radioligand binding Assays were […]
(§12) performed under conditions described in the accompanying "Methods" section of this report […]
(§13) by Eurofins Panlabs, Inc (Taipei, Taiwan, ROC).
(§14) BPRCX807 were tested in the hERG (hERG-CHO, automated patch-clamp) assay and determined at Eurofins Panlabs (Missouri, USA). The experiment was accepted in accordance with Eurofins validation Standard Operating Procedure.
(§15) Selectivity Screening of various chemokine receptors
(§16) The results were performed by Eurofins DiscoverX (Fremont, California, USA). The […]
(§17) PathHunter® β -Arrestin assay was performed in a homogenous, non-imaging assay format […]
(§18) using a technology developed by DiscoverX called Enzyme Fragment Complementation […]
(§19) called Enzyme Acceptor (EA). PK and EA are then expressed as fusion proteins in the cell, […]
(§20) restoring β-Gal activity which is measured using chemiluminescent PathHunter® Detection […]

[1] = test system: other chemokine receptors (10 CCRs, 7 CXCRs, and 1 CX3CR subtypes); assay: as above; assay type: cell-based; settings: 10 µM
From the text: as §1, §2, §3, §4, §5, §6, §7, §8, §9, §10, §11, §12, §13, §14, §15, §16, §17, §18, §19, §20

HCA-1 cells = assay: Wound healing assay; assay type: cell-based, murine; settings: CXCL12 100 ng/mL, BPRCX807 10 μM, 24, 48, 72 h
Method: [3-(2-Aminomethyl-oxazol-4-yl)-propyl]-[3-(tert-butoxycarbonyl-cyclohexyl-amino)- propyl]-carbamic acid tert-butyl ester (Linker 1). A mixture of L1-6 (10.35 g, 16.5 mmol) and 10% Pd/C (4.66 g) in iso-propanol (310 mL) was stirred under H2(g) at 50 °C for 15 h.
The resulting mixture was filtered, and the filtrate was concentrated to afford Linker 1 (7.23 g, […]
Wound healing and invasion assays
Cell migration ability was measured by wound healing assay. HCA-1 cells (5 × 10^5 cells per well) were seeded onto 12-well plates and incubated overnight. When the cell confluence exceeded 90%, scratch wounds were made by scraping a straight line in the middle of the cell layer using the tip of a 1000 µL pipette. After washing the cells with PBS, the cells were incubated in serum-free medium under different treatment conditions (control, 100 ng/mL CXCL12, and 10 µM BPRCX807 with 100 ng/mL CXCL12). Then, 3-4 fields (40×) of each group were randomly chosen and observed by a microscope (IX83, Olympus, Japan) at time points of 0 h, 24h, 48 h and 72 h. For the invasion assay, HCA-1 cells were suspended in RPMI 1640 containing 0.5% FBS and then preincubated with the indicated concentrations of compounds for 10 min at 37 °C. […] After 17.5 h of incubation at 37 °C, the cells in both chambers of the inserts were measured with a CellTiter-Glo Luminescent Cell Viability Assay (Promega, Wisconsin). […]

T1 sequence (Q12809 whole entry): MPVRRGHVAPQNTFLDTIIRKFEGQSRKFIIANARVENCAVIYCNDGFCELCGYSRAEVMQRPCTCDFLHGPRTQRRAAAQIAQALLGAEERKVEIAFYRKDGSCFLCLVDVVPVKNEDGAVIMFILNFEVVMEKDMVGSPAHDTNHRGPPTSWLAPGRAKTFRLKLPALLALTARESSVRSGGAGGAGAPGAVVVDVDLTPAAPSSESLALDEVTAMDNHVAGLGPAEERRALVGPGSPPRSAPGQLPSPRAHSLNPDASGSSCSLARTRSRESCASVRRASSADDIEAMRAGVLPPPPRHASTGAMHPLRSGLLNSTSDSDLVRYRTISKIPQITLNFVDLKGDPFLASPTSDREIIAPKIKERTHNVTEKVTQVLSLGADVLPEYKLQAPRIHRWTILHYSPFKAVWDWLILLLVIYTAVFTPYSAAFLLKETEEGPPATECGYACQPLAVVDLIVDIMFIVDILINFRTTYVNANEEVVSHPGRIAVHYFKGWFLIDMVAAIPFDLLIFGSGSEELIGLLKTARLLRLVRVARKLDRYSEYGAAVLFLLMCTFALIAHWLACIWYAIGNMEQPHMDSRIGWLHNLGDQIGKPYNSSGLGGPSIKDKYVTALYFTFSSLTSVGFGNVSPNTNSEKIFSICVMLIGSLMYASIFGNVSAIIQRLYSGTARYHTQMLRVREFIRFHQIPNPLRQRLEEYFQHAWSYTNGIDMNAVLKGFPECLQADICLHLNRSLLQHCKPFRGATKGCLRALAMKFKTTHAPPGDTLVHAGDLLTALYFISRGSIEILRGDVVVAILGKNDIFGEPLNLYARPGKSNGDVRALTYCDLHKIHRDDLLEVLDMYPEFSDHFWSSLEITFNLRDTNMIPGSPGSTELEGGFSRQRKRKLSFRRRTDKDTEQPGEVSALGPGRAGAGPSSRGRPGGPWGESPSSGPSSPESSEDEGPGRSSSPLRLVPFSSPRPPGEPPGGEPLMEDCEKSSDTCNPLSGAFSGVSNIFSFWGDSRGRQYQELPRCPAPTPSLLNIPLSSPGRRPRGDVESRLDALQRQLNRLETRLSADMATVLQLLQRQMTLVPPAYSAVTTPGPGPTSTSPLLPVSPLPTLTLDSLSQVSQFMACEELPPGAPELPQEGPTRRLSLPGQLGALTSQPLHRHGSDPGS

## Cc1cc(NC2CCN(C(=O)CCNCC(=O)O)CC2)nc(NCc2nc(CCCNCCCNC3CCCCC3)co2)n1 [BPRCX807]
hERG; 1 µM
  inhibition at 1 µM: 13.8%
hERG; 10 µM
  inhibition at 10 µM: 9%
hERG; 100 µM
  inhibition at 100 µM: 17.4%
CXCR4
  inhibition at 10 µM: 100%
[1]
  Inhibition of other chemokine receptors (β-arrestin assay): < 10%
HCA-1 cells
  CXCL12-induced wound closure rate: significantly suppressed
